± gives the expanded uncertainty stated by the source.
Columns and labels:
[1] = molar heat capacity at constant volume; xn = mol fraction of the nth substance listed; conditions: Fluid (supercritical or subcritical phases), Vacuum adiabatic calorimetry, x1 = 0.489
[2] = xn = mol fraction of the nth substance listed; conditions: Fluid (supercritical or subcritical phases), isochoric method, x1 = 0.489
[3] = molar heat capacity at constant volume; conditions: Fluid (supercritical or subcritical phases), Vacuum adiabatic calorimetry
[4] = Fluid (supercritical or subcritical phases), isochoric method

F/C=C/C(F)(F)F [trans-1,3,3,3-tetrafluoropropene] + O=C=O
Conditions	mass density, [2] [kg/m3]	molar heat capacity at constant volume, [1] [J/K/mol]
270.15 K, 10302 kPa	1191.8 ± 1.9	74.42 ± 3.4
275.15 K, 14848 kPa	1191 ± 1.9	74.81 ± 3.4
280.15 K, 19370 kPa	1190.1 ± 1.9	75.36 ± 3.4
285.15 K, 23857 kPa	1189.2 ± 1.9	75.44 ± 3.4
286.15 K, 24752 kPa	1189 ± 1.9	77.71 ± 3.6
290.15 K, 7501 kPa	1115.7 ± 1.8	76.77 ± 3.5
290.15 K, 28318 kPa	1188.3 ± 1.9	75.75 ± 3.5
295.15 K, 11107 kPa	1115 ± 1.8	77.86 ± 3.6
300.15 K, 14713 kPa	1114.2 ± 1.8	78.41 ± 3.6
301.15 K, 15434 kPa	1114.1 ± 1.8	78.57 ± 3.6
302.15 K, 16154 kPa	1114 ± 1.8	78.33 ± 3.6
303.15 K, 16872 kPa	1113.8 ± 1.8	77.63 ± 3.6
306.15 K, 19026 kPa	1113.3 ± 1.8	76.61 ± 3.5
310.15 K, 21888 kPa	1112.7 ± 1.8	79.59 ± 3.7
315.15 K, 25455 kPa	1112 ± 1.8	79.12 ± 3.7
320.15 K, 9139 kPa	1003.8 ± 1.6	75.59 ± 3.5
320.15 K, 28987 kPa	1111.2 ± 1.8	78.18 ± 3.6
325.15 K, 11633 kPa	1003.2 ± 1.6	76.38 ± 3.5
330.15 K, 14125 kPa	1002.7 ± 1.6	75.99 ± 3.5
335.15 K, 16616 kPa	1002.1 ± 1.6	74.81 ± 3.4
340.15 K, 19103 kPa	1001.6 ± 1.6	74.81 ± 3.4
345.15 K, 21584 kPa	1001 ± 1.6	76.85 ± 3.5
350.15 K, 24061 kPa	1000.4 ± 1.6	76.46 ± 3.5
355.15 K, 26532 kPa	999.9 ± 1.6	76.53 ± 3.5
360.15 K, 28998 kPa	999.3 ± 1.6	78.8 ± 3.6
361.15 K, 7303 kPa	648.9 ± 1.1	98.76 ± 4.5
365.15 K, 7938 kPa	648.7 ± 1.1	97.58 ± 4.5
370.15 K, 8742 kPa	648.5 ± 1.1	100.71 ± 4.6
375.15 K, 9557 kPa	648.3 ± 1.1	103.3 ± 4.8
380.15 K, 10380 kPa	648.1 ± 1.1	104.86 ± 4.9
385.15 K, 11211 kPa	647.9 ± 1.1	104.47 ± 4.8
390.15 K, 12047 kPa	647.6 ± 1.1	106.11 ± 4.9
395.15 K, 12887 kPa	647.4 ± 1.1	107.91 ± 5
400.15 K, 13731 kPa	647.2 ± 1.1	103.92 ± 4.8
405.15 K, 14576 kPa	647 ± 1.1	102.28 ± 4.7
410.15 K, 15424 kPa	646.8 ± 1.1	97.11 ± 4.5
415.15 K, 16273 kPa	646.6 ± 1.1	93.67 ± 4.3
420.15 K, 17122 kPa	646.3 ± 1.1	92.5 ± 4.2
425.15 K, 17972 kPa	646.1 ± 1.1	91.79 ± 4.2

F/C=C/C(F)(F)F [trans-1,3,3,3-tetrafluoropropene]
Conditions	mass density, [4] [kg/m3]	molar heat capacity at constant volume, [3] [J/K/mol]
270.15 K, 5540 kPa	1266.6 ± 2	107.31 ± 4.9
275.15 K, 7679 kPa	1266.2 ± 2	107.2 ± 4.9
280.15 K, 9813 kPa	1265.7 ± 2	108 ± 5
285.15 K, 11937 kPa	1265.3 ± 2	107.88 ± 5
290.15 K, 14055 kPa	1264.9 ± 2	107.43 ± 4.9
295.15 K, 2684 kPa	1185 ± 1.9	110.39 ± 5.1
295.15 K, 16163 kPa	1264.4 ± 2	107.2 ± 4.9
300.15 K, 4324 kPa	1184.7 ± 1.9	111.19 ± 5.1
305.15 K, 5963 kPa	1184.3 ± 1.9	111.42 ± 5.1
310.15 K, 7598 kPa	1184 ± 1.9	112.22 ± 5.1
315.15 K, 9231 kPa	1183.6 ± 1.9	111.99 ± 5.1
320.15 K, 10858 kPa	1183.3 ± 1.9	112.9 ± 5.2
325.15 K, 12483 kPa	1182.9 ± 1.9	112.45 ± 5.1
330.15 K, 14103 kPa	1182.5 ± 1.9	113.13 ± 5.2
335.15 K, 3368 kPa	1048.2 ± 1.7	122.82 ± 5.7
335.15 K, 15720 kPa	1182.2 ± 1.9	111.99 ± 5.1
340.15 K, 4423 kPa	1047.9 ± 1.7	121.57 ± 5.6
345.15 K, 5477 kPa	1047.7 ± 1.7	121.91 ± 5.6
350.15 K, 6529 kPa	1047.4 ± 1.8	121 ± 5.6
355.15 K, 7582 kPa	1047.1 ± 1.7	119.97 ± 5.5
360.15 K, 8633 kPa	1046.9 ± 1.7	118.83 ± 5.5
365.15 K, 9684 kPa	1046.6 ± 1.7	118.49 ± 5.5
370.15 K, 10734 kPa	1046.3 ± 1.7	118.95 ± 5.5
375.15 K, 11784 kPa	1046.1 ± 1.7	119.06 ± 5.5
380.15 K, 12833 kPa	1045.8 ± 1.7	120.88 ± 5.6
385.15 K, 4344 kPa	717.5 ± 1.2	195.81 ± 9
385.15 K, 13882 kPa	1045.6 ± 1.7	121 ± 5.6
390.15 K, 4695 kPa	717.4 ± 1.2	192.84 ± 8.9
390.15 K, 14930 kPa	1045.3 ± 1.7	120.43 ± 5.6
395.15 K, 5051 kPa	717.3 ± 1.2	190.11 ± 8.8
395.15 K, 15976 kPa	1045 ± 1.7	122.14 ± 5.6
400.15 K, 5410 kPa	717.1 ± 1.2	185.43 ± 8.6
405.15 K, 5772 kPa	717 ± 1.2	181.21 ± 8.3
410.15 K, 6137 kPa	716.9 ± 1.2	176.31 ± 8.1
415.15 K, 6503 kPa	716.8 ± 1.2	174.37 ± 8.7
420.15 K, 6872 kPa	716.7 ± 1.2	171.18 ± 8.1
425.15 K, 7243 kPa	716.6 ± 1.2	167.53 ± 7.8
